The values that follow come from US20220323401A1, “FORMULATIONS OF CANNABINOIDS FOR THE TREATMENT OF ACNE” (priority 2017, published 2022).

Series [1] has as its target T1, human vanilloid receptor type 1 (VR1) (Homo sapiens, UniProt Q8NER1).
T1 construct: host or cells: HEK cells transfected with hVR1 (HEK-hVR1)
The following applies: HEK-hVR1 transfected cells; cited from earlier work.

Another series concerns sensitized guinea-pigs. The following applies: 1 mg/kg i.v.; cited from earlier work.
For series [2] the following is noted: in ethanol, reported value; cited from earlier work.
Series [3] can be described thus: Initial solubility studies of CBD in solvents. Type of series: physicochemical. On the procedure:
First, the solubility of cannabidiol (CBD) was assessed. The powder looked granulated under the microscope. […] The conclusions from the solubility studies were that OA and IPA were very good solvents and it was surprising that IPA was so much better than ethanol.
Solubility studies: CBD dissolved at the 10% level in AE and barely 9.5% in IPM. Further exploration was not conducted due to the small amount of drug API available for non-GMP work. CBD is soluble greater than 10% but probably not in excess of 20%, as the time to dissolve additional CBD was taking considerably longer.

Series [4] has as its system immortalized human sebocytes. The following applies: cited from earlier work.
In a further series the test system is rats. The following applies: 5 mg/kg i.v. once daily for 4 weeks; cited from earlier work.
A further series concerns anandamide. The following applies: rat basophilic leukemia cells; cited from earlier work.
Series [5] can be described thus: Discoloration of CBD solutions and formulations. It counts as physicochemical. The following applies: by end of day 1. From the text:
The CBD2 material dissolved like the CBD1 therefore the CBD2 is CBD without the discoloration properties of CBD1.

T1 sequence (Q8NER1 whole entry): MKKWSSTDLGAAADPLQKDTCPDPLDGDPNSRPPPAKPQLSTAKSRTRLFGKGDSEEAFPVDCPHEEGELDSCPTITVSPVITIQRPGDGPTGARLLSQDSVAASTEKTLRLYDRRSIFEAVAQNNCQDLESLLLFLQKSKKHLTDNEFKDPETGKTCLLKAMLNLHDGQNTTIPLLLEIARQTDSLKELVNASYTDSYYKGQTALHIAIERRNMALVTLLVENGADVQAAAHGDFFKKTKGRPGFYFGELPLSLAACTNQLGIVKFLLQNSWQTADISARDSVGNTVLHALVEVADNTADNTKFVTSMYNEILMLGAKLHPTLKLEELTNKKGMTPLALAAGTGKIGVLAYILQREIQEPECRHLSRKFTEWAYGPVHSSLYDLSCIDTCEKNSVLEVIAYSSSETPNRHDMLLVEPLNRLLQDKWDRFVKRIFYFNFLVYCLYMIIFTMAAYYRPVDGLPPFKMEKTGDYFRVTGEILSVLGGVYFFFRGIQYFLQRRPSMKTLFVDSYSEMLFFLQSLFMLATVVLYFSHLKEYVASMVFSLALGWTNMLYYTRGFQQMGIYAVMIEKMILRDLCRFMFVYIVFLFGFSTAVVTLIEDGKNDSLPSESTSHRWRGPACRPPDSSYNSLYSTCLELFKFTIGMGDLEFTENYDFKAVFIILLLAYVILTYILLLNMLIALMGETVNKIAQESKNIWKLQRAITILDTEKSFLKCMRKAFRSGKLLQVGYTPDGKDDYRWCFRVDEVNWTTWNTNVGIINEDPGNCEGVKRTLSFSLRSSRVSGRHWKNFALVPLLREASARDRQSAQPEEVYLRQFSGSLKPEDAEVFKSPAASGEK

With `C=C(C)C1CCC(C)=CC1c1c(O)cc(CCCCC)cc1O` (stereo not shown) [CBD, 2-[3-methyl-6-(1-methylethenyl)-2-cyclohexen-1-yl]-5-pentyl-1,3-benzenediol], the “stimulation of human VR1” value in series [1] was “maximum effect similar in efficacy to that of capsaicin”. In addition, the ovalbumin-induced airway obstruction result with sensitized guinea-pigs is reported as “attenuated ovalbumin-induced airway obstruction”. The “reported solubility of CBD” value in series [2] is reported as 3.5%. For the same compound, the “solubility of CBD” value is on record as “greater than 10%” in series [3] (in arlamol E (AE), probably not in excess of 20%); about 9.5% in series [3] (in isopropyl myristate (IPM)); 6-7% in series [3] (weight to weight, in ethanol); 3-4% in series [3] (weight to weight, in hexamethyldisiloxane (HDS)); “greater than 14%” in series [3] (weight to weight, in isopropyl alcohol (IPA)); 3-4% in series [3] (weight to weight, in mineral oil). In addition, the “solubility of CBD” value is listed as “greater than 8%” in series [3] (weight to weight, in oleyl alcohol (OA), did not go higher) and 6-7% in series [3] (weight to weight, in propylene glycol (PG)). Moreover, the effects on sebocytes entry in series [4] is “lipostatic, anti-proliferative, and anti-inflammatory effects”. The “cardiac inflammation produced by doxorubicin” value in the series with rats is “attenuated cardiac inflammation produced by doxorubicin”. In the series on anandamide, the effect on anandamide entry is on record as “inhibit anandamide”.
As to `C=C(C)[C@@H]1CCC(C)=C[C@H]1c1c(O)cc(CCCCC)cc1O` [CBD2], in series [5], the discoloration of solution entry is on record as “None of the CBD2 solutions were colored at the end of day 1”.
On to `C=C(C)[C@@H]1CCC(C)=C[C@H]1c1c(O)cc(CCCCC)cc1O` [CBD1], for which the discoloration of solution result in series [5] is on record as “colored by the end of the day”.
